In patent US7183075B2, “Purified and isolated potassium-chloride cotransporter nucleic acids and polypeptides and therapeutic and screening methods using same” (Vanderbilt University, priority 2000, dated 2007):
Read-outs that look alike come from different tables or passages of the source.

Molecular target: T1, hKCC3a (Homo sapiens, UniProt Q9UHW9, L346X/L35X/L789X)
T1 construct: A full-length hKCC3a construct has also been generated for functional expression; expressed in transfected cells; host or cells: Xenopus laevis oocytes injected with cRNA
T1 sequence (Q9UHW9 1-1150 L35X/L346X/L789X): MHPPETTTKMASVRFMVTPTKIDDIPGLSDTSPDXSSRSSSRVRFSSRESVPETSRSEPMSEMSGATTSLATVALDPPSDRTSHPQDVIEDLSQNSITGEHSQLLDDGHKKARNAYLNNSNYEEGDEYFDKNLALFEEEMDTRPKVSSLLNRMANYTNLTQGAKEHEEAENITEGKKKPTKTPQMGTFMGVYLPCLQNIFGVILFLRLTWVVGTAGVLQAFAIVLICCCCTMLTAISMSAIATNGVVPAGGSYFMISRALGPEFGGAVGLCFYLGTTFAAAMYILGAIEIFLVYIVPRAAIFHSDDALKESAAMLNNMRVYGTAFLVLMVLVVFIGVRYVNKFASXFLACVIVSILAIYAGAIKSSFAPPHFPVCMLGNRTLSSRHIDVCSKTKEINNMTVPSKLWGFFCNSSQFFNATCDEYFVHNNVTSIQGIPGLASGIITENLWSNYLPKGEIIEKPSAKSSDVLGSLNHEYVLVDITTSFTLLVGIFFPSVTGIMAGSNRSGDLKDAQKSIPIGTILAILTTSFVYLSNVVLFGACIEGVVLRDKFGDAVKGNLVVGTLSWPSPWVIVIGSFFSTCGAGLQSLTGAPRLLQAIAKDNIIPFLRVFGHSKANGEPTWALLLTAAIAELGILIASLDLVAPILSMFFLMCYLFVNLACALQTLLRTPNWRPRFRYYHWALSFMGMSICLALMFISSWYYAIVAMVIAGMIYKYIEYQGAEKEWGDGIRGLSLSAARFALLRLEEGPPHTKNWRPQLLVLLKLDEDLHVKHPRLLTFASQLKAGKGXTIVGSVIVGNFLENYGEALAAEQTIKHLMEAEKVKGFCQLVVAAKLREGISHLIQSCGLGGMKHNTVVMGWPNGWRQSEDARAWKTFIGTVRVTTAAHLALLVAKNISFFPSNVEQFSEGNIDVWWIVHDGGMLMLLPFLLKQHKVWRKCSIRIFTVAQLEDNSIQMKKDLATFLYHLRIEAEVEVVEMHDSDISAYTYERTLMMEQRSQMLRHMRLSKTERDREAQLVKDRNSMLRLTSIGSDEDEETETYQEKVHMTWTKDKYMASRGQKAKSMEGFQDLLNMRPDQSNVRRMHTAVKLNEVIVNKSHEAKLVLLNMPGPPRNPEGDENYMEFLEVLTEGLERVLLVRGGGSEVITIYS
Experiment: 86Rb+ uptake (K+-Cl- cotransport) in Xenopus oocytes injected with hKCC3a cRNA
Format: cell-based
Details: for Km: KCC3

Compound: [K+] [Potassium]
- Km (read-out: Potassium Km): 51.9 mM

Compound: HgCl2 [Hg—Cl2]
- response of KCC3a to mercury (50 μM HgCl2, hypotonic): resistant

Compound: Cl [Chloride]
- Km (read-out: Chloride Km): 14.2 mM
